# Measurements from US20240025852A1, “T-TYPE CALCIUM CHANNEL MODULATORS AND METHODS OF USE THEREOF” (PRAXIS PRECISION MEDICINES, INC., priority 2020, published 2024).
# Experiments:
# [1] = Hμrel Low Clearance Assay; assay type: in vitro ADME, human; set-up: % of Control (intrinsic clearance relative to the control compound): tested at 1 µM; details: HμRELhumanPool 96-well hepatic co-culture, human hepatic co-culture, 1 μM substrate, 0-72 hr incubation, control = geometric mean of 3 replicates
# Protocol: (§1) The Hμrel Low Clearance Assay was performed to determine the stability of deuterated compounds described herein and calculate changes in clearance relative to the control compound (undeuterated compound) that has the following structure:
# (§2) HμRELhumanPool™ 96-well hepatic co-culture plates were media changed and cells were allowed to acclimatize at 37° C. for 20 hr. HμREL® incubation media (serum free) and test compound diluted from a 1000×DMSO stock (final substrate concentration 1 μM; final DMSO concentration 0.1%) were added to the HμREL© 96-well co-culture system at a final cell number of 30,000 cells per well to initiate the reaction. The final incubation volume was 80 μL per time point and two control compounds were included for reference (ketoprofen and prednisolone). All clearance assessments were performed in singlicate with the exception of the undeuterated control compound, which was tested in duplicate on two separate days for a total of 4 replicates. Each compound was incubated for 0, 2, 6, 24, 48 and 72 hr. The reactions were terminated by transferring 60 μL of incubate to 180 μL acetonitrile containing internal standard at the appropriate time points. The crash plates were centrifuged at 3000 rpm at 4° C. for 20 min to precipitate residual protein. Following protein precipitation, sample supernatants were combined in cassettes of up to 4 compounds and analyzed using generic LCMS/MS conditions.
# (§3) LC-MS/MS chromatograms were analyzed by peak area ratio (test article peak area/internal standard peak area) and natural log transformed, and plotted against time. The slope of the line was determined to calculate elimination rate constant. Subsequently, half-life (t1/2) and intrinsic clearance (CLint) were calculated using the following equations: […]
# (§4) Average clearance of the control compound was determined by taking the geometric mean of 3 of the four replicates. The fourth replicate was excluded from the average determination as an outlier.
# [2] = system: HμRELhumanPool 96-well hepatic co-culture; test: Hμrel Low Clearance Assay; assay type: in vitro ADME, human; set-up: % of Control (intrinsic clearance relative to the control compound): tested at 1 µM; details: for Half-Life: human hepatic co-culture, 1 μM substrate, 0-72 hr incubation; for % of Control (intrinsic clearance relative to the control compound): observed CLint divided by average CLint of undeuterated control compound
# Protocol: as §1, §2, §3, §4
# [3] = biological target: T1, Recombinant CYP3A4 Supersomes (Homo sapiens, UniProt P08684); test: Recombinant CYP3A4 Clearance Assay; assay type: in vitro ADME; details: for % of Control (intrinsic clearance relative to the control compound): observed CLint divided by average CLint of undeuterated control compound; for Half-Life / CLint: recombinant CYP3A4 50 pmol/mL, 1 μM substrate, NADPH; for Half-Life: 0-120 minutes; for CLint: control = geometric mean of 3 replicates
# T1 construct: purchased
# Protocol: The CYP3A4 Clearance Assay was performed to determine the stability of deuterated compounds described herein and calculate changes in clearance relative to the control compound (undeuterated compound) that has the following structure:
# Recombinant CYP3A4 Supersomes were prepared in 100 mM potassium phosphate buffer (50 pmol/mL final recombinase) and 80 μL aliquots were delivered per well to 96-well reaction plates containing 10 μL/well stock working solution containing substrate at 10× final concentration in 0.1:9.9:90 DMSO:ACN:100 mM phosphate buffer. Final substrate concentration during incubation was 1 μM. Reaction mixtures were pre-incubated at 37° C. for 10 minutes, prior to addition of 10 μL/well of NADPH regenerating system to initiate the reaction (β-Nicotinamide adenine dinucleotide phosphate) or 100 mM phosphate as a buffer control.
# Clearance assessments were performed for test compounds in singlicate except for the control compound, which was tested in triplicate. Incubations were maintained at 37° C. for 0, 5, 15, 30, 45, 60, 90, and 120 minutes (or 0 and 120 minutes for buffer control). The reactions were terminated with 3× volume of cold (4° C.) acetonitrile (ACN) containing 200 ng/mL tolbutamide and 200 ng/mL labetalol as internal standards (IS). The crash plates were centrifuged at 4000 rpm at 4° C. for 20 min to precipitate residual protein. Following protein precipitation, sample supernatants were harvested and 3× volume of HPLC grade water was added to each sample for chromatography purposes. Plates were sealed and shaken for 10 minutes prior to LC-MS/MS analysis using generic LCMS/MS conditions.
# as §3
# Average intrinsic clearance of the control compound was determined by taking the geometric mean of 3 replicates.
# T1 sequence (P08684 whole entry): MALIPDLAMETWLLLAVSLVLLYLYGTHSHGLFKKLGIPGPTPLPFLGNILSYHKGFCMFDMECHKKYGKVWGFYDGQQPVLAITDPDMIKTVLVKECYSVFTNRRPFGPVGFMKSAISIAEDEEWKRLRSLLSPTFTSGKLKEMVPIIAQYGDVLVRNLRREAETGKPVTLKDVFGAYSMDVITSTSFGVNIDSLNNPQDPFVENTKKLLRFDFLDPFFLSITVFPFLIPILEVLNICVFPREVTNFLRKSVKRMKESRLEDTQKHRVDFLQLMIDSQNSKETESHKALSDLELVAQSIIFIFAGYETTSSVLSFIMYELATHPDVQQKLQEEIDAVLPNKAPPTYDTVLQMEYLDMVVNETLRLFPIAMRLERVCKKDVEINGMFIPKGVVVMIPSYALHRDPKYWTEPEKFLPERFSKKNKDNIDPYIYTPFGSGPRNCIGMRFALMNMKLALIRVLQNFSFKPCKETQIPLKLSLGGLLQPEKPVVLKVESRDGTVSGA
Structure (SMILES),hepatocyte CLint at 1 μM ([1]; human),Half-Life [2],% of Control (intrinsic clearance relative to the control compound) [2],% of Control (intrinsic clearance relative to the control compound) [3],Half-Life [3],CLint [3],hepatocyte CLint at 1 μM [1]
"[2H]C([2H])(C(=O)NC(C([2H])([2H])[2H])(C([2H])([2H])[2H])C([2H])([2H])[2H])N1CCC(CNC(=O)c2cc(F)cc(Cl)c2)CC1 [Compound 15, 3-chloro-N-[[1-[1,1-dideuterio-2-oxo-2-[[2,2,2-trideuterio-1,1-bis(trideuteriomethyl)ethyl]amino]ethyl]-4-piperidyl]methyl]-5-fluoro-benzamide]",1.35 µL/min/1e6 cells,22.67 h,95.4%,82.9%,0.158 h,1.46 µL/min/pmol,–
"[2H]C1([2H])CC(CNC(=O)c2cc(F)cc(Cl)c2)CC([2H])([2H])N1CC(=O)NC(C([2H])([2H])[2H])(C([2H])([2H])[2H])C([2H])([2H])[2H] [Compound 16, 3-chloro-5-fluoro-N-[[2,2,6,6-tetradeuterio-1-[2-oxo-2-[[2,2,2-trideuterio-1,1-bis(trideuteriomethyl)ethyl]amino]ethyl]-4-piperidyl]methyl]benzamide]",–,28.33 h,76.3%,61.4%,0.213 h,1.08 µL/min/pmol,1.08 µL/min/1e6 cells
"[2H]C([2H])(C(=O)NC(C)(C([2H])([2H])[2H])C([2H])([2H])[2H])N1CCC(CNC(=O)c2cc(F)cc(Cl)c2)CC1 [Compound 17, 3-chloro-N-[[1-[1,1-dideuterio-2-oxo-2-[[2,2,2-trideuterio-1-methyl-1-(trideuteriomethyl)ethyl]amino]ethyl]-4-piperidyl]methyl]-5-fluoro-benzamide]",1.18 µL/min/1e6 cells,26.17 h,83.4%,72.2%,0.182 h,1.27 µL/min/pmol,–
"[2H]C1([2H])CC(CNC(=O)c2cc(F)cc(Cl)c2)CC([2H])([2H])N1CC(=O)NC(C)(C([2H])([2H])[2H])C([2H])([2H])[2H] [Compound 19, 3-chloro-5-fluoro-N-[[2,2,6,6-tetradeuterio-1-[2-oxo-2-[[2,2,2-trideuterio-1-methyl-1-(trideuteriomethyl)ethyl]amino]ethyl]-4-piperidyl]methyl]benzamide]",0.718 µL/min/1e6 cells,43 h,51.5%,62.2%,0.212 h,1.09 µL/min/pmol,–
"[2H]C([2H])([2H])C(C)(NC(=O)CN1C([2H])([2H])C([2H])([2H])C([2H])(CNC(=O)c2cc(F)cc(Cl)c2)C([2H])([2H])C1([2H])[2H])C([2H])([2H])[2H] [Compound 20, 3-chloro-5-fluoro-N-[[2,2,3,3,4,5,5,6,6-nonadeuterio-1-[2-oxo-2-[[2,2,2-trideuterio-1-methyl-1-(trideuteriomethyl)ethyl]amino]ethyl]-4-piperidyl]methyl]benzamide]",0.803 µL/min/1e6 cells,38.33 h,56.7%,61.5%,0.213 h,1.08 µL/min/pmol,–
"[2H]C([2H])(C(=O)NC(C)(C)C([2H])([2H])[2H])N1CCC(CNC(=O)c2cc(F)cc(Cl)c2)CC1 [Compound 21, 3-chloro-N-[[1-[1,1-dideuterio-2-oxo-2-[(2,2,2-trideuterio-1,1-dimethyl-ethyl)amino]ethyl]-4-piperidyl]methyl]-5-fluoro-benzamide]",1.46 µL/min/1e6 cells,21.17 h,103%,94.4%,0.138 h,1.66 µL/min/pmol,–
"[2H]C1([2H])CC(CNC(=O)c2cc(F)cc(Cl)c2)CC([2H])([2H])N1CC(=O)NC(C)(C)C([2H])([2H])[2H] [Compound 22, 3-chloro-5-fluoro-N-[[2,2,6,6-tetradeuterio-1-[2-oxo-2-[(2,2,2-trideuterio-1,1-dimethyl-ethyl)amino]ethyl]-4-piperidyl]methyl]benzamide]",0.872 µL/min/1e6 cells,35.33 h,62.6%,87.5%,0.15 h,1.54 µL/min/pmol,–
"[2H]C1([2H])CN(CC(=O)NC(C)(C([2H])([2H])[2H])C([2H])([2H])[2H])CC([2H])([2H])C1CNC(=O)c1cc(F)cc(Cl)c1 [Compound 23, 3-chloro-5-fluoro-N-[[3,3,5,5-tetradeuterio-1-[2-oxo-2-[[2,2,2-trideuterio-1-methyl-1-(trideuteriomethyl)ethyl]amino]ethyl]-4-piperidyl]methyl]benzamide]",0.908 µL/min/1e6 cells,34 h,65.2%,86.2%,0.152 h,1.52 µL/min/pmol,–
"CC(C)(C)NC(=O)CN1CCC(CNC(=O)c2cc(F)cc(Cl)c2)CC1 [Control, reference compound]",1.42 µL/min/1e6 cells,22.17 h,100%,100%,0.132 h,1.76 µL/min/pmol,–
